Source: US20220274947A1, “NOVEL HETEROARYL-TRIAZOLE COMPOUNDS AS PESTICIDES” (Bayer Aktiengesellschaft, priority 2019, published 2022)

Columns and labels:
Assay type in all cases: in vivo
Myzus persicae [1] = test: Myzus persicae oral test; settings: 120 h, read-out: activity (mortality)
Method in brief: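 Percent mortality was recorded at day 5, where 0% means no aphids killed. Compound prepared from an acetone concentrate diluted in water and combined with IPL41 medium containing sugar was offered to mixed-stage green peach aphids, which sucked it through a parafilm seal.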

Ctenocephalides felis [2] = test: Ctenocephalides felis in-vitro contact test, adult cat flea (CTECFE Cont); settings: application rate 5 μg/cm^2 (=500 g/ha), adult cat fleas, after 48 hours, read-out: activity (efficacy: 100% means all fleas are dead or moribund)
Method in brief: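 Acetone solutions coated on glass tube inner walls (900 ppm giving 5 μg/cm^2), then 5-10 adult fleas added and held 48 h at room temperature. Fleas unable to escape a 45-50° C. heating plate within 5 min scored dead or moribund; efficacy = % dead/moribund.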

Rhipicephalus sanguineus = Rhipicephalus sanguineus in-vitro contact test, adult brown dog ticks (RHIPSA Cont); settings: 48 h, after 48 hours, read-out: activity (efficacy: 100% means all ticks are dead or moribund); for pest or weed control at 5 µg/cm2, 500 g/ha: application rate 5 μg/cm^2 (=500 g/ha); for pest or weed control at 1 µg/cm2, 100 g/ha: application rate 1 μg/cm^2 (=100 g/ha)
Method in brief: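 Compound in acetone was coated onto the inner walls of glass tubes and dried by rotation before adult brown dog ticks were exposed. Efficacy was scored at 48 h. Ticks unable to climb away from a 45–50 °C heating plate within 5 min counted as dead or moribund.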

Spodoptera frugiperda = Spodoptera frugiperda spray test; settings: in Zea mays, 168 h, read-out: activity (mortality)
Method in brief: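 Maize leaf sections were sprayed with compound formulated in acetone/DMF and diluted in water containing 1000 ppm emulsifier. Dried leaves were infested with fall armyworm larvae, and percent mortality was scored after 7 days.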

Diabrotica balteata = Diabrotica balteata spray test; settings: 168 h, wheat seeds, larvae, after 7 days, read-out: activity (efficacy: 100% means all seedlings have grown up like in the untreated, uninfected control); for pest or weed control at 32 µg/disc, 100 g/ha: application rate 100 g/ha (=32 μg/well)
Method in brief: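 Wheat seedlings, germinated 1 day on agar, were sprayed with compound in acetone/DMF diluted in water containing emulsifier, then infested with 10-20 Diabrotica balteata larvae. After 7 days efficacy in % was scored: 100% means seedlings grew like the untreated, uninfected control; 0% means none grew.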

Myzus persicae [3] = test: Myzus persicae spray test; settings: in Brassica rapa, foliar, 120 h; for mortality at 100 g/ha: read-out: activity (mortality), application rate 100 g/ha, spray, Chinese cabbage leaf disks, after 5 days
Protocol: Myzus persicae—Spray Test Solvent: 78.0 parts by weight acetone • 1.5 parts by weight dimethylformamide Emulsifier: alkylarylpolyglycol ether To produce a suitable preparation of active compound, 1 part by weight of active compound is mixed with the stated amount of solvents and is diluted with water, containing an emulsifier concentration of 1000 ppm, to the desired concentration. Further test concentrations are prepared by dilution with emulsifier containing water.
Chinese cabbage (Brassica pekinensis) leaf disks infected with all instars of the green peach aphid (Myzus persicae), are sprayed with a preparation of the active ingredient of the desired concentration.
After 5 days mortality in % is determined. 100% means all aphids have been killed and 0% means none of the aphids have been killed.

Rhipicephalus microplus [4] = test: Rhipicephalus (Boophilus) microplus in-vitro contact test, larval cattle tick, strain Parkhurst (BOOPMI Cont); settings: application rate 5 μg/cm^2 (=500 g/ha), tick larvae, after 48 hours, read-out: activity (efficacy: 100% means all larvae are dead or moribund)
Method in brief: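 Acetone solutions dried onto glass tube walls (900 ppm giving 5 μg/cm^2); 20-50 pyrethroid-resistant Parkhurst larvae added per tube and held 48 h at 27° C., 85% relative humidity. Efficacy scored by negative geotaxis as % dead or moribund larvae.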

Nezara viridula = Nezara viridula spray test; settings: in Hordeum vulgare, 96 h, barley plants, larvae, after 4 days; for mortality at 100 g/ha: application rate 100 g/ha; for mortality at 500 g/ha: application rate 500 g/ha
Protocol: Nezara viridula—Spray Test Solvent: 78.0 parts by weight of acetone • • 1.5 parts by weight of dimethylformamide Emulsifier: alkylarylpolyglycol ether
To produce a suitable preparation of active compound, 1 part by weight of active compound is mixed with the stated amount of solvent, and the concentrate is diluted with water, containing an emulsifier concentration of 1000 ppm, to the desired concentration. Further test concentrations are prepared by dilution with emulsifier containing water.
Barley plants (Hordeum vulgare) infested with larvae of the southern green stink bug (Nezara viridula) are sprayed with a test solution containing the desired concentration of the active ingredient.
After 4 days mortality in % is determined. 100% means all the stink bugs have been killed; 0% means none of the stink bugs have been killed.

Rhipicephalus microplus [5] = test: Rhipicephalus (Boophilus) microplus injection test (BOOPMI Inj); settings: 168 h, injection into adult engorged female ticks, egg deposition after 7 days, read-out: activity (efficacy: 100% means all eggs are infertile); for pest or weed control at 0.004 mg: application rate 4 μg/tick
Method in brief: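 Five engorged adult female R. microplus ticks injected into the abdomen with 1 μL of compound diluted in DMSO, then kept in a climate chamber. Fertile egg deposition checked after 7 days; eggs without visible fertility held until hatching at about 42 days. Efficacy: 100% = all eggs infertile, 0% = all fertile.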

Ctenocephalides felis [6] = test: Ctenocephalides felis oral test (CTECFE Oral); settings: 48 h, read-out: activity (mortality)
Method in brief: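 About 20 unfed adult cat fleas fed through parafilm on cattle blood containing compound (DMSO concentrate diluted in blood to the desired concentration). Blood held at 37 °C, fleas at room temperature. Mortality (%) scored after 2 days.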

Compound | mortality at 0.8 ppm (Myzus persicae [1]) [%] | mortality at 4 ppm (Myzus persicae [1]) [%] | pest or weed control at 5 µg/cm2 (Ctenocephalides felis [2]) [%] | pest or weed control at 5 µg/cm2, 500 g/ha (Rhipicephalus sanguineus) [%] | mortality at 100 g/ha (Spodoptera frugiperda) [%] | pest or weed control at 32 µg/disc, 100 g/ha (Diabrotica balteata) [%] | mortality at 100 g/ha (Myzus persicae [3]) [%] | pest or weed control at 5 µg/cm2 (Rhipicephalus microplus [4]) [%] | mortality at 100 g/ha (Nezara viridula) [%] | mortality at 500 g/ha (Nezara viridula) [%] | mortality at 500 g/ha (Spodoptera frugiperda) [%] | pest or weed control at 160 µg/disc, 500 g/ha (Diabrotica balteata; application rate 500 g/ha (=160 μg/well)) [%] | pest or weed control at 0.004 mg (Rhipicephalus microplus [5]) [%] | pest or weed control at 0.02 mg (Rhipicephalus microplus [5]; application rate 20 μg/tick) [%] | mortality at 500 g/ha (Myzus persicae [3]; read-out: activity (mortality), application rate 500 g/ha, spray, Chinese cabbage leaf disks, after 5 days) [%] | pest or weed control at 1 µg/cm2, 100 g/ha (Rhipicephalus sanguineus) [%] | mortality at 100 ppm (Ctenocephalides felis [6]) [%]
COc1nc([C@H](C)NC(=O)c2cc(OC(F)F)cc(OC(F)F)c2)n(-c2ccc(C#N)cn2)n1 [I-64] | 100 | 100 | 90 | 80 | 100 | 100 | 90 | 100 | 90 | 100 | – | – | – | – | – | – | –
CC(C)CN(C)C(=O)c1ccc(-n2ncnc2[C@H](C)NC(=O)c2cc(Cl)cc(C(F)(F)F)c2)nc1 [II-71] | – | 90 | 100 | 100 | – | 100 | 90 | 100 | – | 100 | 100 | 100 | 100 | 100 | 90 | – | –
Cc1nc([C@H](C)NC(=O)c2cc(C(F)(F)F)cc(C(F)(F)F)c2)n(-c2ccc(C(=O)N(C)CC3CC3)cn2)n1 [II-91] | 100 | 100 | 100 | 100 | 100 | 100 | 100 | 100 | 100 | – | – | – | 100 | – | – | 100 | 100
Cc1nc([C@H](C)NC(=O)c2cc(C(F)(F)F)cc(C(F)(F)F)c2)n(-c2ccc(C(=O)N(C)C(C)C)cn2)n1 [II-92] | – | 100 | 100 | 100 | 100 | – | 90 | 100 | 90 | – | – | – | 100 | – | – | 100 | –
Cc1nc([C@H](C)NC(=O)c2cc(C(F)(F)F)cc(C(F)(F)F)c2)n(-c2ccc(C(=O)N(C)CC(F)(F)F)cn2)n1 [II-93] | – | 100 | 90 | 100 | 100 | 100 | 90 | 100 | 100 | – | – | – | 100 | – | – | 100 | 90
Cc1nc([C@H](C)NC(=O)c2cc(C(F)(F)F)cc(C(F)(F)F)c2)n(-c2ccc(C(=O)N(C)CC(C)C)cn2)n1 [II-94] | – | 100 | 100 | 100 | – | 100 | 90 | 100 | 100 | – | – | – | 100 | – | – | 100 | 90
Cc1nc([C@H](C)NC(=O)c2cc(C(F)(F)F)cc(C(F)(F)F)c2)n(-c2ccc(C(=O)N(C)C)cn2)n1 [II-100] | 100 | 100 | 100 | 100 | 100 | – | 100 | 100 | 100 | – | – | – | 100 | – | – | 100 | –
Cc1nc([C@H](C)NC(=O)c2cc(F)cc(C#N)c2)n(-c2ccc(C#N)cn2)n1 [II-105] | – | 100 | 100 | 100 | 100 | 100 | 90 | 100 | 100 | – | – | – | 100 | – | – | 100 | 100
CCSc1cc(C#N)cc(C(=O)N[C@@H](C)c2ncnn2-c2ccc(C#N)cn2)c1 [II-109] | 90 | 100 | 100 | 100 | – | 100 | 90 | 100 | 100 | – | – | – | 100 | – | – | 100 | –
Cc1nc([C@H](C)NC(=O)c2cc(OC(F)F)cc(C(F)F)c2)n(-c2ccc(C#N)cn2)n1 [II-113] | 100 | 100 | 100 | 100 | 100 | 100 | 90 | 100 | 100 | – | – | – | 100 | – | – | 80 | 100
Cc1nc([C@H](C)NC(=O)c2cc(C(F)F)cc(C(F)F)c2)n(-c2ccc(C#N)cn2)n1 [II-114] | 100 | 100 | 100 | 100 | 83 | 100 | 90 | 100 | 100 | – | – | – | – | – | – | 100 | –
Cc1nc([C@H](C)NC(=O)c2cc(OC(F)F)cc(OC(F)F)c2)n(-c2ccc(C#N)cn2)n1 [II-115] | 100 | 100 | 90 | 100 | 100 | 100 | 90 | 100 | 100 | – | – | – | – | – | – | – | –
